According to patent US10039753B2, “Imidazo[4,5-c]quinoline and imidazo[4,5-c][1,5]naphthyridine derivatives as LRRK2 inhibitors” (Pfizer Inc., priority 2015, dated 2018):
Values belong to the compound of their own block, whether it stands above or below them.

Legend:
[1] = target: T1, GST-tagged truncated LRRK2 (Homo sapiens, UniProt Q5S007); test: LRRK2 Assay, Format 1 (Lantha Screen), WT; type: biochemical
T1 construct: GST-tagged truncated LRRK2 from Invitrogen (Cat # PV4874); GST; purchased Invitrogen PV4874
T1 sequence (Q5S007 970-2527 limits assumed): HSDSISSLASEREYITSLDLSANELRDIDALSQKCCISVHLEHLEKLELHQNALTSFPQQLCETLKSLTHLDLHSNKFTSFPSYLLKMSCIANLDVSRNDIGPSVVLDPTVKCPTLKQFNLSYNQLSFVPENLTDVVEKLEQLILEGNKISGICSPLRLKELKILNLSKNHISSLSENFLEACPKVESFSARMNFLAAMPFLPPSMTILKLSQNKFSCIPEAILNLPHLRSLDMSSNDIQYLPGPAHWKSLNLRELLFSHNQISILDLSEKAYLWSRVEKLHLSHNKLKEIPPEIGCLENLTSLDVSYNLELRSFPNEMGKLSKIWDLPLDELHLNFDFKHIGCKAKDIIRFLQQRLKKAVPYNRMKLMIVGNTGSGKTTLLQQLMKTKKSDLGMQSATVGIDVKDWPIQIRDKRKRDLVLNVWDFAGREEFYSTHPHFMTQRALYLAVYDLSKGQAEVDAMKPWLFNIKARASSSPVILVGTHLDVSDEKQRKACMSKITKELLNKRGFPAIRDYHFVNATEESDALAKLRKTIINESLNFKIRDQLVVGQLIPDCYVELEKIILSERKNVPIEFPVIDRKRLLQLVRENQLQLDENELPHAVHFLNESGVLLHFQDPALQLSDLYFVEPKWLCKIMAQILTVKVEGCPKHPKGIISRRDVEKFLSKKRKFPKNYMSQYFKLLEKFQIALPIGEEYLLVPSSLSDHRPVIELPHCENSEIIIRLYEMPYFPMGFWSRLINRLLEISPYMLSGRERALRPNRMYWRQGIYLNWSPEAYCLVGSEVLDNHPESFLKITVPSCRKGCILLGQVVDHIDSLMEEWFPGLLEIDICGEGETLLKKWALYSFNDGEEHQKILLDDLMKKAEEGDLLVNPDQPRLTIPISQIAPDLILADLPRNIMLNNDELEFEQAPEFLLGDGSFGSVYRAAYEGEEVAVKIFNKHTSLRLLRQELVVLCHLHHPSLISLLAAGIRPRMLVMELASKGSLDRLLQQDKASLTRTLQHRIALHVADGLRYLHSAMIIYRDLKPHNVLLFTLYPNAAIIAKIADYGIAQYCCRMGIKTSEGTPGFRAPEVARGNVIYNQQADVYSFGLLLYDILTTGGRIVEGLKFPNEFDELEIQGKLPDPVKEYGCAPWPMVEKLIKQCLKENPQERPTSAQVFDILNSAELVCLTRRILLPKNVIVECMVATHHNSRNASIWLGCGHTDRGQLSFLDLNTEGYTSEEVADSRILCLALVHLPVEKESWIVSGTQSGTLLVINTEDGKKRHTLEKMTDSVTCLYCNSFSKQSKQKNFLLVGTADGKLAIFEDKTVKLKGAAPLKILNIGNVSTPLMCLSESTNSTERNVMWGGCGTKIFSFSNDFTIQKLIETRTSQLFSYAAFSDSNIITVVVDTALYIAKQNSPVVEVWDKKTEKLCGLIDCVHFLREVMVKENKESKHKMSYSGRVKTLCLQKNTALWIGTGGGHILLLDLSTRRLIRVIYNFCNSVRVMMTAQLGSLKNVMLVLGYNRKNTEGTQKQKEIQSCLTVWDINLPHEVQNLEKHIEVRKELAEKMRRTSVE
How it was run: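 Kinase activity measured by TR-FRET: GST-tagged truncated LRRK2 (4 μg/mL working solution) reacted with fluorescein-labeled LRRKtide (ERM-based peptide) across a compound dose response for 2 h at room temperature. Reaction stopped with EDTA-containing detection buffer (20 mM Tris pH 7.6) holding 2 nM terbium anti-phospho-ERM antibody.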

[2] = target: T1, GST-tagged truncated LRRK2; test: LRRK2 Assay, Format 2 (Lantha Screen), WT; type: biochemical
mutant G2019S LRRK2 [3] = target: T2, mutant G2019S LRRK2 (Homo sapiens, UniProt Q5S007, G2019S); test: LRRK2 Assay, Format 2 (Lantha Screen), G2019S mutant; type: biochemical; parameters: purchased Invitrogen PV4881
T2 sequence (Q5S007 970-2527 G2019S limits assumed): as the sequence (Q5S007 970-2527 limits assumed) above, with G1050S counted along it

mutant G2019S LRRK2 [4] = target: T2, mutant G2019S LRRK2; test: LRRK2 Assay, Format 1 (Lantha Screen), G2019S mutant
[5] = tested on: kinase selectivity mini-panel; test: Kinase selectivity (mini-panel), further assay run, Table 5A; type: biochemical; conditions: 1 mM ATP, 1 μM drug concentration; for percent inhibition of ABL: kinase ABL; for percent inhibition of AKT: kinase AKT; for percent inhibition of AURA: kinase AURA; for percent inhibition of BTK: kinase BTK; for percent inhibition of CDK2_CyclinA: kinase CDK2_CyclinA; for percent inhibition of CHK1: kinase CHK1; for percent inhibition of CHK2: kinase CHK2; for percent inhibition of CKIIa′: kinase CKIIa′; for percent inhibition of CKIa: kinase CKIa; for percent inhibition of CaMKIIa: kinase CaMKIIa; for percent inhibition of EGFR: kinase EGFR; for percent inhibition of ERK2: kinase ERK2; for percent inhibition of EphA2: kinase EphA2; for percent inhibition of FGFR1: kinase FGFR1; for percent inhibition of GSK3b: kinase GSK3b; for percent inhibition of HGFR: kinase HGFR; for percent inhibition of IRAK4: kinase IRAK4; for percent inhibition of IRK: kinase IRK; for percent inhibition of JAK3: kinase JAK3; for percent inhibition of KDR (VEGF): kinase KDR (VEGF); for percent inhibition of LCK: kinase LCK; for percent inhibition of MARK1: kinase MARK1; for percent inhibition of MK2: kinase MK2; for percent inhibition of MLCK_sk: kinase MLCK_sk; for percent inhibition of MST2: kinase MST2; for percent inhibition of MST4: kinase MST4; for percent inhibition of PAK4: kinase PAK4; for percent inhibition of PDK1: kinase PDK1; for percent inhibition of PIM2: kinase PIM2; for percent inhibition of PKACa: kinase PKACa; for percent inhibition of PRKCB2: kinase PRKCB2; for percent inhibition of ROCKI: kinase ROCKI; for percent inhibition of SGK: kinase SGK; for percent inhibition of SRC: kinase SRC; for percent inhibition of TAO2: kinase TAO2; for percent inhibition of TIE2: kinase TIE2; for percent inhibition of TRKA: kinase TRKA; for percent inhibition of ZC1 (HGK): kinase ZC1 (HGK); for percent inhibition of p38: kinase p38
Experimental: The compounds were run using a commercially available kinase selectivity assay which is available from CarnaBio USA, Inc. 209 West Central St., Suite 307, Natick, Mass. 01760 USA. The compounds of Examples 3, 4, 5 and 22 were run in the assay at a concentration of 1 μM using an ATP concentration of 1 mM.

[6] = geometric mean of 2-4 determinations unless otherwise indicated
[7] = geometric mean of 2-4 determinations unless otherwise indicated (a: >=5; b: single determination)
[8] = geometric mean of 2-4 determinations unless otherwise indicated (a: >=5; b: single determination), read-out: LRRK2, Format 2 G2019S IC50
[9] = Format 1, wild-type LRRK2, geometric mean of 2-4 determinations unless footnoted (a: ≥5 determinations; b: single determination; c: determined on trifluoroacetate salt)

Structure (SMILES): Cc1nc(Cc2nc3cnc4ccc(Cl)cc4c3n2C2C[C@@H](C)[C@@H](F)C2)no1 (single isomer, unassigned) [Example 136]
- IC50 [1, 6]: 30.1 nM
- IC50 [2, 7]: 12 nM
- IC50 (mutant G2019S LRRK2 [3]; [8]): 13 nM
- IC50 (mutant G2019S LRRK2 [4]): 24.7 nM

Structure (SMILES): Cc1cn(Cc2nc3cnc4ccc(Br)cc4c3n2[C@@H]2CCO[C@H](C)C2)nn1 [Example 173, 8-bromo-1-[(2R,4R)-2-methyltetrahydro-2H-pyran-4-yl]-2-[(4-methyl-1H-1,2,3-triazol-1-yl)methyl]-1H-imidazo[4,5-c]quinoline]
- IC50 [1, 6]: 5.14 nM
- IC50 [2, 7]: 6.7 nM
- IC50 (mutant G2019S LRRK2 [3]; [8]): 6.72 nM
- IC50 (mutant G2019S LRRK2 [4]): 3.62 nM

Structure (SMILES): Cc1nc(Cc2nc3cnc4ccc(Cl)cc4c3n2[C@@H]2CCO[C@H](C)C2)no1 [Example 5, 8-Chloro-2-[(5-methyl-1,2,4-oxadiazol-3-yl)methyl]-1-[(2R,4R)-2-methyltetrahydro-2H-pyran-4-yl]-1H-imidazo[4,5-c]quinoline]
- IC50 [1, 9]: 4.6 nM
- percent inhibition of ABL [5]: 1.3%
- percent inhibition of AKT [5]: −3.11%
- percent inhibition of AURA [5]: −0.59%
- percent inhibition of BTK [5]: −1.9%
- percent inhibition of CDK2_CyclinA [5]: 3.76%
- percent inhibition of CHK1 [5]: 4.68%
- percent inhibition of CHK2 [5]: 2.05%
- percent inhibition of CKIIa′ [5]: 5.19%
- percent inhibition of CKIa [5]: 8.85%
- percent inhibition of CaMKIIa [5]: 1.1%
- percent inhibition of EGFR [5]: −0.51%
- percent inhibition of ERK2 [5]: 2.62%
- percent inhibition of EphA2 [5]: 0.13%
- percent inhibition of FGFR1 [5]: 12.6%
- percent inhibition of GSK3b [5]: 3.4%
- percent inhibition of HGFR [5]: −7.71%
- percent inhibition of IRAK4 [5]: 1.85%
- percent inhibition of IRK [5]: 1.53%
- percent inhibition of JAK3 [5]: −0.03%
- percent inhibition of KDR (VEGF) [5]: 15.08%
- percent inhibition of LCK [5]: 17.19%
- percent inhibition of MARK1 [5]: 3.46%
- percent inhibition of MK2 [5]: −3.62%
- percent inhibition of MLCK_sk [5]: 3.8%
- percent inhibition of MST2 [5]: 14.89%
- percent inhibition of MST4 [5]: 8.04%
- percent inhibition of PAK4 [5]: −0.05%
- percent inhibition of PDK1 [5]: 0.39%
- percent inhibition of PIM2 [5]: −3.78%
- percent inhibition of PKACa [5]: −8.79%
- percent inhibition of PRKCB2 [5]: 9.78%
- percent inhibition of ROCKI [5]: 0.07%
- percent inhibition of SGK [5]: −0.06%
- percent inhibition of SRC [5]: 2.47%
- percent inhibition of TAO2 [5]: 0.55%
- percent inhibition of TIE2 [5]: 2.53%
- percent inhibition of TRKA [5]: 12.31%
- percent inhibition of ZC1 (HGK) [5]: −0.79%
- percent inhibition of p38 [5]: 5.64%
- IC50 (mutant G2019S LRRK2 [4]): 2.7 nM

Structure (SMILES): Cc1nc(Cc2nc3cnc4ccc(Cl)cc4c3n2C2C[C@@H](C)[C@@H](F)C2)no1 (mixture of isomers) [diastereomer of Example 136, 8-chloro-1-[rel-(3S,4R)-3-fluoro-4-methylcyclopentyl]-2-[(5-methyl-1,2,4-oxadiazol-3-yl)methyl]-1H-imidazo[4,5-c]quinoline, DIAST-2]
- IC50 ([1]; 100 nM LRRKtide, 50 μM ATP, 1.7 μg/mL LRRK2 enzyme, two hours at room temperature): 156 nM
- IC50 ([2]; 100 nM LRRKtide, 1000 mM ATP (so in the source), 30 minutes at room temperature): 63.2 nM
- IC50 (mutant G2019S LRRK2 [3]; 100 nM LRRKtide, 1000 mM ATP (so in the source), 30 minutes at room temperature, read-out: LRRK2, Format 2 G2019S mutant IC50): 69.2 nM
- IC50 (mutant G2019S LRRK2 [4]): 105 nM

Further compounds by falling IC50 (mutant G2019S LRRK2 [4]), results first:

- IC50 [1, 9]: 8.3 nM
- percent inhibition of ABL [5]: −2.51%
- percent inhibition of AKT [5]: 1.03%
- percent inhibition of AURA [5]: 7.17%
- percent inhibition of BTK [5]: 0.22%
- percent inhibition of CDK2_CyclinA [5]: 8.08%
- percent inhibition of CHK1 [5]: 8.15%
- percent inhibition of CHK2 [5]: 2.72%
- percent inhibition of CKIIa′ [5]: 4.36%
- percent inhibition of CKIa [5]: 18.22%
- percent inhibition of CaMKIIa [5]: 7.62%
- percent inhibition of EGFR [5]: 3.07%
- percent inhibition of ERK2 [5]: 4.54%
- percent inhibition of EphA2 [5]: 0.85%
- percent inhibition of FGFR1 [5]: 20.35%
- percent inhibition of GSK3b [5]: 4.45%
- percent inhibition of HGFR [5]: −5.99%
- percent inhibition of IRAK4 [5]: 3.88%
- percent inhibition of IRK [5]: 2.83%
- percent inhibition of JAK3 [5]: −1.51%
- percent inhibition of KDR (VEGF) [5]: 14.24%
- percent inhibition of LCK [5]: 15.63%
- percent inhibition of MARK1 [5]: 1.48%
- percent inhibition of MK2 [5]: 3.04%
- percent inhibition of MLCK_sk [5]: 3.07%
- percent inhibition of MST2 [5]: 16.25%
- percent inhibition of MST4 [5]: 1.29%
- percent inhibition of PAK4 [5]: 3.85%
- percent inhibition of PDK1 [5]: 4.87%
- percent inhibition of PIM2 [5]: −0.54%
- percent inhibition of PKACa [5]: −0.89%
- percent inhibition of PRKCB2 [5]: 4.71%
- percent inhibition of ROCKI [5]: 1.89%
- percent inhibition of SGK [5]: 1.58%
- percent inhibition of SRC [5]: 4.66%
- percent inhibition of TAO2 [5]: 0.82%
- percent inhibition of TIE2 [5]: 4.72%
- percent inhibition of TRKA [5]: 11.84%
- percent inhibition of ZC1 (HGK) [5]: −3.58%
- percent inhibition of p38 [5]: 9.62%
- IC50 (mutant G2019S LRRK2 [4]): 4.9 nM
Structure (SMILES): Cc1cc(Cc2nc3cnc4ccc(Cl)cc4c3n2[C@@H]2CCO[C@H](C)C2)no1 [Example 4, 8-Chloro-2-[(5-methyl-1,2-oxazol-3-yl)methyl]-1-[(2R,4R)-2-methyltetrahydro-2H-pyran-4-yl]-1H-imidazo[4,5-c]quinoline]

- IC50 [1, 6]: 3.78 nM
- IC50 [2, 7]: 16 nM
- IC50 (mutant G2019S LRRK2 [3]; [8]): 15.5 nM
- IC50 (mutant G2019S LRRK2 [4]): 3.65 nM
Structure (SMILES): Cc1nc(Cc2nc3cnc4ccc(Cl)cc4c3n2[C@@H]2CCO[C@H](CC#N)C2)no1 (single isomer, unassigned; ent-1) [Example 135, [cis-4-{8-chloro-2-[(5-methyl-1,2,4-oxadiazol-3-yl)methyl]-1H-imidazo[4,5-c]quinolin-1-yl}tetrahydro-2H-pyran-2-yl]acetonitrile, ENT-1]

- IC50 [1, 9]: 3.4 nM
- percent inhibition of ABL [5]: 5.06%
- percent inhibition of AKT [5]: 2.25%
- percent inhibition of AURA [5]: 9.46%
- percent inhibition of BTK [5]: 1.63%
- percent inhibition of CDK2_CyclinA [5]: 10.91%
- percent inhibition of CHK1 [5]: 9.08%
- percent inhibition of CHK2 [5]: 4.45%
- percent inhibition of CKIIa′ [5]: 3.12%
- percent inhibition of CKIa [5]: 10.68%
- percent inhibition of CaMKIIa [5]: 3.76%
- percent inhibition of EGFR [5]: 2.76%
- percent inhibition of ERK2 [5]: 4.69%
- percent inhibition of EphA2 [5]: 0.7%
- percent inhibition of FGFR1 [5]: 21.95%
- percent inhibition of GSK3b [5]: 3.91%
- percent inhibition of HGFR [5]: −3.76%
- percent inhibition of IRAK4 [5]: 4.95%
- percent inhibition of IRK [5]: 0.67%
- percent inhibition of JAK3 [5]: −0.46%
- percent inhibition of KDR (VEGF) [5]: 29%
- percent inhibition of LCK [5]: 9.31%
- percent inhibition of MARK1 [5]: 1.52%
- percent inhibition of MK2 [5]: −1.14%
- percent inhibition of MLCK_sk [5]: 4.74%
- percent inhibition of MST2 [5]: 23.23%
- percent inhibition of MST4 [5]: 10.29%
- percent inhibition of PAK4 [5]: 4.23%
- percent inhibition of PDK1 [5]: 8.16%
- percent inhibition of PIM2 [5]: 4.47%
- percent inhibition of PKACa [5]: 5.23%
- percent inhibition of PRKCB2 [5]: −0.76%
- percent inhibition of ROCKI [5]: 6.94%
- percent inhibition of SGK [5]: 4.89%
- percent inhibition of SRC [5]: 1.86%
- percent inhibition of TAO2 [5]: 5.98%
- percent inhibition of TIE2 [5]: 5.85%
- percent inhibition of TRKA [5]: 13.01%
- percent inhibition of ZC1 (HGK) [5]: 2.87%
- percent inhibition of p38 [5]: 7.19%
- IC50 (mutant G2019S LRRK2 [4]): 2.6 nM
Structure (SMILES): Cc1cn(Cc2nc3cnc4ccc(Cl)cc4c3n2[C@@H]2CCO[C@H](C)C2)nn1 [Example 11, 8-Chloro-1-[(2R,4R)-2-methyltetrahydro-2H-pyran-4-yl]-2-[(4-methyl-1H-1,2,3-triazol-1-yl)methyl]-1H-imidazo[4,5-c]quinoline]
